Test results from patent US8182815B2, “Fibroblast growth factor receptor-3 (FGFR-3) inhibitors and methods of treatment” (ImClone, LLC, priority 2008, dated 2012).
One block for each molecule: values may come before it.

Assays:
RT4 tumor = assay: RT4 xenograft, combination with cisplatin; conditions: Antibody 1 40 mg/kg three times weekly, cisplatin MTD
Experimental: (§1) The therapeutic benefit of combining cisplatin with FGFR-3 antibody in three bladder xenograft models is explored. Develop RT112, RT4 and BFTC905 xenograft tumor models by routine methods in which 1-20 million tumor cells mixed with 0-100% Matrigel are injected subcutaneously to each female athymic nude mouse. Start antibody treatment once the mean volume of the subcutaneous tumors is approximately 400 mm^2. […] Measure tumor volumes 3 times weekly until the end of the studies.
Conduct RM ANOVO statistical test.

RT-112 tumor = assay: RT112 xenograft, combination with cisplatin; conditions: Antibody 1 40 mg/kg three times weekly, cisplatin MTD
Experimental: as §1
Conduct RM ANOVO statistical test.

BFTC-905 tumor = assay: BFTC905 xenograft, combination with cisplatin; conditions: Antibody 1 40 mg/kg three times weekly, cisplatin MTD
Experimental: as §1
Conduct RM ANOVO statistical test.

[1] = molecular target: T1, FGFR-3 (K650E) in OPM-2 cells (Homo sapiens, UniProt P22607, K650E); assay: FGFR-3 receptor degradation in OPM-2 cells (western blot); type: cell-based; conditions: 37° C., Antibody 1 30 ug/ml, FGF-1 30 ng/ml
T1 construct: endogenous in cells; host or cells: OPM-2
T1 sequence (P22607 23-806 K650E): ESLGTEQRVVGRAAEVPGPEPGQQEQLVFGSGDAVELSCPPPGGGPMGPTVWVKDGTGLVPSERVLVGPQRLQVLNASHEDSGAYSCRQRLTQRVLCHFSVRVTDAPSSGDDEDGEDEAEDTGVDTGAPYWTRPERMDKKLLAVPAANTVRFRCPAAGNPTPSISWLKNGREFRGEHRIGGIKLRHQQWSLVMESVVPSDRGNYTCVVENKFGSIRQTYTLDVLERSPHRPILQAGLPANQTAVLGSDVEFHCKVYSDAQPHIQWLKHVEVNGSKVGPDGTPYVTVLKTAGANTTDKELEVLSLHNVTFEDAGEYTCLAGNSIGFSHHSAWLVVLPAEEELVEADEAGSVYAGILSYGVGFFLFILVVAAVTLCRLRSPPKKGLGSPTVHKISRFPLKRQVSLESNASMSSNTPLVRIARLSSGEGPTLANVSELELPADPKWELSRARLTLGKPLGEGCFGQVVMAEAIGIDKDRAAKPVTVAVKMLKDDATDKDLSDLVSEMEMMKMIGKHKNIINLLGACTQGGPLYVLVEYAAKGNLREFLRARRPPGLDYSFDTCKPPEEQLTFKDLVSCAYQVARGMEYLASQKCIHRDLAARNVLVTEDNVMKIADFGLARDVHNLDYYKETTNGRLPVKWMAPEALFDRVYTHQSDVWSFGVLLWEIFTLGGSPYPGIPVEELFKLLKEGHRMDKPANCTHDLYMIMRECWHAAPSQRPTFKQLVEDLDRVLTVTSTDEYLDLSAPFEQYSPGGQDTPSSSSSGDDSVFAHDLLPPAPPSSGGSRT
Experimental: OPM-2 is a cell line originally isolated from cancer cells of multiple myeloma. OPM-2 cells are known to express FGFR-3 receptors harboring a gain-of-function K650E point mutation. Quiesce the OPM-2 cells in low serum culture media (0.1% FBS) for overnight. The next day, divide these cells into 5 groups. Group 1 is lysed immediately, and the lysate is kept at −20° C. until the time of western blot analysis. This group is therefore designated as Time 0 hr sample. Group 2-5 each has 3 samples of equal size, named as Sample A, B and C of Group 2, 3, 4, and 5. Samples A of Group 2-5 are not subjected to any further treatment, but are incubated at 37° C. Samples B of Group 2-5 are treated with 30 ng/ml FGF-1 at 37° C. […] All samples of Group 2 are lysed after 1 hr of treatment, and the lysates are kept at −20° C. until the time of western blot analysis. This group is designated as the Time 1 hr samples. All samples of Group 3 are lysed after 4 hr of treatment, and the lysates are kept at −20° C. until the time of western blot analysis. This group is designated as the Time 4 hr samples. All samples of Group 4 are lysed after 8 hr of treatment, and the lysates are kept at −20° C. until the time of western blot analysis. This group is designated as Time 8 hr samples. All samples of Group 5 are lysed after 24 hr of treatment, and the lysates are kept at −20° C. until the time of western blot analysis. This group is designated as Time 24 hr samples. When all lysates are ready, they are subjected to SDS-PAGE followed by Western Blot experiment. The FGFR-3 signals of Group 1 and all samples of Group 2 are similar. […] In Group 5, the FGFR-3 signal of Sample A is lower than that of group 1; yet signals of Samples B and C are nearly absent.

RT112 cells = assay: RT112 cell proliferation assay (3H-thymidine incorporation); type: cell-based, human; conditions: 1 nM exogenous FGF-1, 48 hours
Experimental: Quiesce monolayer RT112 cells in low serum culture media (0.1% fetal bovine serum, 5 μg/mL heparin) for 24-72 hrs. Divide cells into 4 samples. Add FBS (Fetal Bovine Serum) to Sample 1 to the final concentration of 10% (V:V). Leave Sample 2 in the starving media. Add FGF-1 to Sample 3 to the final concentration of 1 nM. […] Next, add FGF-1 to the final concentration of 1 nM. After preparing Samples 1-4 as described above, incubate the samples in a tissue culture incubator set at 37° C. and with 5% CO2 (v:v) for 48 hours. Detect cell growth using standard ^3H-thymidine incorporation, assays. Tumor cell growth is doubled when RT112 cells […] are stimulated with 1 nM exogenous FGF-1.

Molecule: N.N.[Cl][Pt][Cl] [Cisplatin, cisplatin, reference compound]
- RT4 Tumor Volumes, Average (RT4 tumor; Day 1): 195.4 mm^3
- RT4 Tumor Volumes, Average (RT4 tumor; Day 8): 253.4 mm^3
- RT4 Tumor Volumes, Average (RT4 tumor; Day 15): 374.0 mm^3
- RT4 Tumor Volumes, Average (RT4 tumor; Day 22): 511.9 mm^3
- RT4 Tumor Volumes, Average (RT4 tumor; Day 29): 675.8 mm^3
- RT4 Tumor Volumes, Average (RT4 tumor; Day 36): 840.5 mm^3
- RT4 Tumor Volumes, Average (RT4 tumor; Day 42): 1024.5 mm^3
- RT-112 Tumor Volumes, Average (RT-112 tumor; Day 1): 175.7 mm^3
- RT-112 Tumor Volumes, Average (RT-112 tumor; Day 8): 245.1 mm^3
- RT-112 Tumor Volumes, Average (RT-112 tumor; Day 15): 360.8 mm^3
- RT-112 Tumor Volumes, Average (RT-112 tumor; Day 22): 578.8 mm^3
- RT-112 Tumor Volumes, Average (RT-112 tumor; Day 29): 739.4 mm^3
- RT-112 Tumor Volumes, Average (RT-112 tumor; Day 36): 881.6 mm^3
- RT-112 Tumor Volumes, Average (RT-112 tumor; Day 42): 1115.9 mm^3
- BFTC-905 Tumor Volumes, Average (BFTC-905 tumor; Day 0): 192.1 mm^3
- BFTC-905 Tumor Volumes, Average (BFTC-905 tumor; Day 3): 211.4 mm^3
- BFTC-905 Tumor Volumes, Average (BFTC-905 tumor; Day 7): 243.4 mm^3
- BFTC-905 Tumor Volumes, Average (BFTC-905 tumor; Day 14): 286.7 mm^3
- BFTC-905 Tumor Volumes, Average (BFTC-905 tumor; Day 21): 395.0 mm^3
- BFTC-905 Tumor Volumes, Average (BFTC-905 tumor; Day 28): 511.6 mm^3
- BFTC-905 Tumor Volumes, Average (BFTC-905 tumor; Day 35): 615.5 mm^3
- BFTC-905 Tumor Volumes, Average (BFTC-905 tumor; Day 42): 829.6 mm^3

- FGFR-3 signal compared with Time 0 hr (Group 1) ([1]; Time 1 hr): similar
- FGFR-3 signal compared with Time 0 hr (Group 1) ([1]; Time 4 hr): significantly lower
- FGFR-3 signal compared with Time 0 hr (Group 1) ([1]; Time 8 hr): significantly lower
- FGFR-3 signal compared with Time 0 hr (Group 1) ([1]; Time 24 hr): nearly absent
Molecule: FGF-1: recombinant human FGF ligand, known to induce FGFR degradation
- tumor cell growth on stimulation (RT112 cells): doubled
